Consider eight compounds from ChEMBL document CHEMBL1201862, “PubChem BioAssay data set” (2004).

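Protocol summary: plate cells (96-well), add compound at 5 concentrations, incubate 48 h, interpolate endpoints linearly. GI50 marks 50% less growth.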 The source made the active and inactive calls. No stated cut-off is given here; in the data, active = GI50 up to about 1.1 µM and inactive = higher.

Some test systems named below: Malme-3M; A549; SF-295; SF-539; K562; HOP-18; HL-60; SNB-75; HT-29; M14; OVCAR-8; OVCAR-4; SF-268; IGROV-1; SK-OV-3; RXF 393; PC-3; T47D; HOP-92; CAKI-1.
What all share (assay): DTP human tumour cell line panel, 48 h

On to `CCCCCCCCCCCCCCC1OC(=O)c2ccccc21` (stereo not given), for which the GI50 – broadly, the concentration at which growth is held to half of that of the control – in the test with Malme-3M was > 100 µM (inactive); with A549, 60.3 µM (inactive); with SF-295 it was > 100 µM (inactive); with SF-539, > 100 µM (inactive); with K562 it was 30.6 µM (inactive); with HOP-18, > 100 µM (inactive). Besides, the GI50 in the test with HL-60 is 15.6 µM (inactive); in the test on SNB-75, > 100 µM (inactive); in the test on HT-29, 35.8 µM (inactive); in the test with M14 it was > 100 µM (inactive); with OVCAR-8, 55.8 µM (inactive); in the test on OVCAR-4, 66.7 µM (inactive). Also, the GI50 in the test on SF-268 was > 100 µM (inactive); in the test with IGROV-1 it was 89.5 µM (inactive); with SK-OV-3, > 100 µM (inactive); in the test on RXF 393, 52 µM (inactive).

With `CC(NNC(=O)CC(=O)N(C(=O)c1ccccc1)c1ccc(Cl)cc1)c1cc2ccccc2oc1=O` (stereo not given), the GI50 with Malme-3M, with PC-3, in the test with A549, in the test on SF-295, in the test with SF-539 and in the test on K562 was > 10 µM (inactive) each time. Moreover, the GI50 in the test on T47D, with HL-60, with SNB-75, in the test with HT-29, in the test on M14 and in the test with OVCAR-8 was > 10 µM (inactive) throughout. Besides, the GI50 in the test on OVCAR-4, in the test on SF-268, in the test on HOP-92, with IGROV-1, in the test with SK-OV-3 and with RXF 393 was > 10 µM (inactive) in each case. For the same compound, the GI50 with CAKI-1 was > 10 µM (inactive).

With `O=C1OCC(c2ccc(Cl)cc2)=C1Cl`, the GI50 in the test with Malme-3M was 15.6 µM (inactive); with PC-3, 22.1 µM (inactive); in the test with A549 it was 35 µM (inactive); with SF-295, 39.9 µM (inactive); in the test with SF-539, 38 µM (inactive); in the test with K562 it was 28.2 µM (inactive). For the same compound, the GI50 is 34.7 µM (inactive) in the test on T47D; 19.8 µM (inactive) in the test with HL-60; > 100 µM (inactive) in the test on SNB-75; 44.7 µM (inactive) in the test with HT-29; 18.8 µM (inactive) with M14; 25.5 µM (inactive) with OVCAR-8. Further, the GI50 in the test on OVCAR-4 was 44.8 µM (inactive); in the test with SF-268, 21.1 µM (inactive); in the test on HOP-92 it was 31.9 µM (inactive); in the test on IGROV-1 it was < 0.01 µM (active); with SK-OV-3 it was > 100 µM (inactive); in the test with RXF 393, 25.1 µM (inactive). Besides, the GI50 in the test with CAKI-1 was 30.5 µM (inactive).

`CN(CCCN1CCCC1)CCCN(C)C(=O)Cc1ccc(Cl)c(Cl)c1`: the GI50 in the test with Malme-3M is 18.3 µM (inactive); in the test with PC-3 it was 22.1 µM (inactive); in the test with A549, 18.6 µM (inactive); in the test on SF-295, 17.7 µM (inactive); in the test on SF-539 it was 16.7 µM (inactive); in the test with K562 it was 5.75 µM (inactive). The GI50 in the test with T47D was 21.2 µM (inactive); in the test on HL-60, 15.7 µM (inactive); with SNB-75, 18.5 µM (inactive); in the test with HT-29, 3.77 µM (inactive); in the test on M14, 5.47 µM (inactive); in the test on OVCAR-8, 30 µM (inactive). Moreover, the GI50 was 29.6 µM (inactive) in the test on OVCAR-4; 8.87 µM (inactive) in the test with SF-268; 8.63 µM (inactive) with HOP-92; 23.9 µM (inactive) in the test on IGROV-1; 27.7 µM (inactive) in the test with SK-OV-3; 12.2 µM (inactive) in the test with RXF 393. The GI50 in the test with CAKI-1 was 20.6 µM (inactive).

As for `COc1cc2cccc(NC(=O)c3cc(OC)c(OC)c(OC)c3Br)c2cc1OC`, the GI50 was 18.5 µM (inactive) in the test with Malme-3M; 14.1 µM (inactive) in the test with A549; 12.5 µM (inactive) in the test with SF-295; 15.4 µM (inactive) in the test on SF-539; 12.5 µM (inactive) in the test with K562; 20.6 µM (inactive) in the test on HOP-18. Further, the GI50 with SNB-75 was 26.9 µM (inactive); with HT-29 it was 21.8 µM (inactive); with M14, 11.3 µM (inactive); in the test with OVCAR-8, 12.9 µM (inactive); in the test on OVCAR-4 it was 9.02 µM (inactive); in the test on SF-268, 18.5 µM (inactive). The results for the GI50 in the test on IGROV-1, in the test on SK-OV-3 and in the test with CAKI-1 were 14.4 µM (inactive), 22.5 µM (inactive) and 17.6 µM (inactive), respectively.

Regarding `COc1cccc2c1C(=O)c1c(O)c3c(c(O)c1C2=O)C[C@@](O)(C(=O)CO)C[C@@H]3OC1CC2C(OCN3CN2COC2C(C)OC(O[C@H]4C[C@](O)(C(=O)CO)Cc5c(O)c6c(c(O)c54)C(=O)c4c(OC)cccc4C6=O)CC23)C(C)O1` (stereo not given in full), the GI50 is 0.0444 µM (active) in the test on Malme-3M; 0.0929 µM (active) in the test with PC-3; 0.0269 µM (active) in the test on A549; 0.0498 µM (active) in the test on SF-295; 0.0377 µM (active) with SF-539; 0.0684 µM (active) in the test on K562. Also, the GI50 in the test with T47D is 0.0167 µM (active); in the test with HL-60, 0.0258 µM (active); in the test with SNB-75, 0.0151 µM (active); in the test on HT-29 it was 0.0428 µM (active); with M14, 0.0861 µM (active); in the test with OVCAR-8, 0.0376 µM (active). The GI50 in the test with OVCAR-4 was 0.237 µM (active); with SF-268 it was 0.0319 µM (active); in the test on HOP-92, 0.0308 µM (active); with IGROV-1 it was 0.0266 µM (active); in the test on SK-OV-3, 0.0681 µM (active); in the test on RXF 393, 0.0106 µM (active). In the test with CAKI-1, the GI50 was 0.0927 µM (active).

Take `O=S(=O)(N/C(=N\O)Nc1ccc(Cl)cc1)c1cc(C(F)(F)F)cc(C(F)(F)F)c1`: the GI50 in the test on Malme-3M is 18 µM (inactive); with PC-3, 17.5 µM (inactive); in the test on A549, 18.1 µM (inactive); in the test on SF-295, 18.3 µM (inactive); with SF-539, 22.3 µM (inactive); in the test with K562, 29.9 µM (inactive). Moreover, the GI50 is 22.4 µM (inactive) in the test with T47D; 24.3 µM (inactive) with HL-60; 16 µM (inactive) in the test with SNB-75; 19 µM (inactive) with HT-29; 17.4 µM (inactive) with M14; 18.7 µM (inactive) in the test with OVCAR-8. The GI50 is 15 µM (inactive) in the test on OVCAR-4; 21.6 µM (inactive) in the test with SF-268; 16.2 µM (inactive) in the test on HOP-92; 16.9 µM (inactive) in the test with IGROV-1; 18.6 µM (inactive) in the test with SK-OV-3; 19 µM (inactive) in the test on RXF 393. In addition, in the test with CAKI-1, the GI50 was 16.9 µM (inactive).

`Cc1coc2c1C(=O)C(=O)c1c-2ccc2c1CCCC2(C)C` [TANSHINONE IIA]: the GI50 in the test on Malme-3M is 0.508 µM (active); in the test with PC-3, 2.34 µM (inactive); with A549 it was 1.48 µM (inactive); in the test on SF-295 it was 2.48 µM (inactive); in the test with SF-539, 2.42 µM (inactive); in the test on K562 it was 0.875 µM (active). The GI50 in the test on T47D is 2.96 µM (inactive); in the test on HL-60, 1.07 µM (active); with SNB-75 it was 3.41 µM (inactive); in the test on HT-29, 10.5 µM (inactive); in the test with M14, 1.06 µM (active); in the test with OVCAR-8 it was 6.35 µM (inactive). Further, the GI50 in the test on OVCAR-4 was 10.6 µM (inactive); in the test on SF-268, 3.53 µM (inactive); in the test with HOP-92 it was > 70.5 µM (inactive); in the test on IGROV-1, 2.04 µM (inactive); in the test on SK-OV-3, 21.3 µM (inactive); with RXF 393, 5.12 µM (inactive). Moreover, in the test with CAKI-1, the GI50 was 1.95 µM (inactive).
